Consider 41 molecules from patent USRE49735E1 (BRISTOL-MYERS SQUIBB COMPANY, priority 2010, dated 2023).

pEC50: −log10 of the molar value. Values joined by “and” are separate entries in the source; they are usually repeats but may differ in a detail not shown here. Identical values can stand only once.

Chain of human mGluR5A (P41594 21-1180 isoform P41594-2): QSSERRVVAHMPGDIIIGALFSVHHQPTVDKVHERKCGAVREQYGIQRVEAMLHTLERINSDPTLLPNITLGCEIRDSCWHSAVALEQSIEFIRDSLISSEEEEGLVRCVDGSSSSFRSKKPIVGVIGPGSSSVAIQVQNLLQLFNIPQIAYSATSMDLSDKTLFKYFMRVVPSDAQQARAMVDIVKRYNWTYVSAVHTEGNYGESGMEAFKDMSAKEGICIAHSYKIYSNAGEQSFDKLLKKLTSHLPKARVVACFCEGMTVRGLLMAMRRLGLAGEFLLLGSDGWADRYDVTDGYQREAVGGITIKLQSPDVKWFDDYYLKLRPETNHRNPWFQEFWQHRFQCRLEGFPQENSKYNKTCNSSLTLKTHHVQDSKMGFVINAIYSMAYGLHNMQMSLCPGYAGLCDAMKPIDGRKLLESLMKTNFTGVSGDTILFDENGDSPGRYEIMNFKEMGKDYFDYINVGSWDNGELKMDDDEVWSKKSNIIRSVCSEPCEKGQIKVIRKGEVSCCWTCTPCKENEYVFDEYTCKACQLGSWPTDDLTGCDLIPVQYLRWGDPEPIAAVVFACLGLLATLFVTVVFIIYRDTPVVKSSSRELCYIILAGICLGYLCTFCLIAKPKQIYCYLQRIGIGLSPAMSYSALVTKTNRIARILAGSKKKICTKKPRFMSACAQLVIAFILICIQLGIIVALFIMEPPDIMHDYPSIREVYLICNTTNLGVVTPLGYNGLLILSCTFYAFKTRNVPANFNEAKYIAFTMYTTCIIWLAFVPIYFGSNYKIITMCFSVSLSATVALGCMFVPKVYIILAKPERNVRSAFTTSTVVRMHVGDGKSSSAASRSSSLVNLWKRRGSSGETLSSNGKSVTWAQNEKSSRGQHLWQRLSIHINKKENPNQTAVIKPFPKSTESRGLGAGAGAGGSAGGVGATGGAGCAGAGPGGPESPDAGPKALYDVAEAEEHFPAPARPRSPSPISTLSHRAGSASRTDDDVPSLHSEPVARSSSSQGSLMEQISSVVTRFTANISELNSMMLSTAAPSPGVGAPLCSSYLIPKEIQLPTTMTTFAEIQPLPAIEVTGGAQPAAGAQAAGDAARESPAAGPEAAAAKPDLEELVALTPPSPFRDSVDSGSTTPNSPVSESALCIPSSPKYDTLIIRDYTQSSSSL

This experiment deals with human mGluR5A (Homo sapiens, UniProt P41594). Kind of experiment: mGluR5 FLIPR Assay. The class given is cell-based. To be noted: positive modulator activity; HEK293 (ZF) cells with human mGluR5A and rat GLAST; Ca++ response to ~EC10 glutamate. The protocol:
HEK293 (ZF) cells stably transfected with human mGluR5A (pIRES neo) and the rat glutamate-aspartate transporter (GLAST; pIRES puro) are grown in a monolayer culture at 37° C. in 5% CO2 and fed with Minimum Essential Medium (MEM) supplemented with 10% dialysed fetal bovine serum. 24 hours prior to assay, cells are enzymatically dissociated from the culture flask (Trypsin, 0.25%), spun down (1000 rpm, 3 min), resuspended, and plated on Greiner black clear bottomed PDL-coated 384-well plates at a density of 30 thousand cells/well. […] Plates are incubated in dye at 37° C. in 5% CO2 for 60 minutes prior to delivery of test compounds in assay buffer. Test compounds are incubated with cells in the presence of dye for 10 minutes prior to being read on the FLIPR platform (Molecular Devices). A Ca^++ signal is induced in the assay plates via the delivery of an ˜EC10 concentration of the endogenous agonist 1-glutamate; images are acquired at 1 Hz for 100 seconds post-delivery of agonist stimulus. Positive modulator activity (i.e. the ability of test compounds to increase the Ca^++ response to a sub-maximal concentration of agonist) is normalized to a saturating concentration of a known mGluR5 PAM run in each assay plate. An EC50 concentration of test compounds is derived from 4-parameter logistic curve fits of transformed fluoresence data via proprietary software suite.
With `O=C1N[C@@H](c2cncc(C#Cc3ccccc3)c2)[C@H](c2ccccc2)O1` (single isomer, unassigned) [Example 39], the pEC50 (as a rule, the negative decadic logarithm of the EC50, by convention in mol/L) was > 7.00.

Take `O=C1N[C@@H](c2cncc(C#Cc3ccccc3)c2)[C@H](c2ccc(F)cc2)O1` (single isomer, unassigned) [Example 40]: the pEC50 was < 6.00.

For `O=C1N[C@H](c2cncc(C#Cc3ccccc3)c2)[C@@H](c2ccc(F)cc2)O1` (single isomer, unassigned) [Example 41], the negative-log EC50 (pEC50) was > 7.00.

For `O=C1N[C@@H](c2cncc(C#Cc3cccnc3)c2)[C@H](c2ccc(F)cc2)O1` (single isomer, unassigned) [Example 42], the negative-log EC50 (pEC50) is < 6.00.

As for `O=C1N[C@H](c2cncc(C#Cc3cccnc3)c2)[C@@H](c2ccc(F)cc2)O1` (single isomer, unassigned) [Example 43], the pEC50 is > 7.00.

Take `O=C1N[C@@H](c2cncc(C#Cc3cncc(F)c3)c2)[C@H](c2ccc(F)cc2)O1` (single isomer, unassigned) [Example 44]: the pEC50 was < 6.00.

Consider `O=C1N[C@H](c2cncc(C#Cc3cncc(F)c3)c2)[C@@H](c2ccc(F)cc2)O1` (single isomer, unassigned) [Example 45], for which the pEC50 is > 7.00 and 8.42.

On to `O=C1N[C@H](c2cccc(C#Cc3ccccc3)c2)[C@@H](c2ccccc2)O1` (single isomer, unassigned) [Example 95], for which the pEC50 is > 7.00.

Regarding `O=C1N[C@@H](c2cccc(C#Cc3ccccc3)c2)[C@H](c2ccccc2)O1` (single isomer, unassigned) [Example 96], the pEC50 was 6.00 to 7.00.

Regarding `Cc1ccc([C@@H]2OC(=O)N[C@H]2c2cccc(C#Cc3ccccc3)c2)cc1C` (single isomer, unassigned) [Example 102], the negative logarithm of the EC50 (pEC50) was < 6.00.

With `O=C1N[C@H](c2cccc(C#Cc3ccccc3)c2)C(c2cccs2)O1` (single isomer, unassigned) [Example 104], the pEC50 was > 7.00.

For `O=C1N[C@@H](c2cccc(C#Cc3ccccc3)c2)[C@H](c2cccs2)O1` (single isomer, unassigned) [Example 105], the pEC50 was < 4.52.

With `O=C1N[C@H](c2cccc(C#Cc3ccccc3)c2)[C@@H](c2ccc(F)cc2)O1` (single isomer, unassigned) [Example 114], the negative-log EC50 (pEC50) is > 7.00.

Turning to `O=C1N[C@H](c2cccc(C#Cc3ccccc3)n2)[C@@H](c2ccc(F)cc2)O1` (single isomer, unassigned) [Example 135], the pEC50 is > 7.00 and 8.07.

As for `O=C1N[C@@H](c2cccc(C#Cc3ccccc3)n2)[C@H](c2ccc(F)cc2)O1` (single isomer, unassigned) [Example 136], the pEC50 is < 6.00.

In the case of `C[C@@]1(c2cncc(C#Cc3ccccc3)c2)NC(=O)O[C@H]1c1ccccc1` (single isomer, unassigned) [Example 137], the pEC50 is 6.00 to 7.00.

For the molecule `C[C@]1(c2cncc(C#Cc3ccccc3)c2)NC(=O)O[C@@H]1c1ccccc1` (single isomer, unassigned) [Example 138], the pEC50 was > 7.00 and 9.37.

For the molecule `O=C1N[C@H](c2cc(C#Cc3ccccc3)ccn2)[C@@H](c2ccc(F)cc2)O1` (single isomer, unassigned) [Example 297], the pEC50 was > 7.00 and 8.33.

For `O=C1N[C@@H](c2cc(C#Cc3ccccc3)ccn2)[C@H](c2ccc(F)cc2)O1` (single isomer, unassigned) [Example 298], the pEC50 is 6.00 to 7.00 and 6.63.

On to `O=C1N[C@H](c2nc(C#Cc3ccccc3)ccc2F)[C@@H](c2ccccc2)O1` (single isomer, unassigned) [Example 305], for which the negative-log EC50 (pEC50) is < 6.00.

Take `O=C1N[C@@H](c2nc(C#Cc3ccccc3)ccc2F)[C@H](c2ccccc2)O1` (single isomer, unassigned) [Example 306]: the pEC50 is < 5.52.

Turning to `O=C1N[C@H](c2cccc(C#Cc3ccccc3)n2)[C@@H](c2ccccc2F)O1` (single isomer, unassigned) [Example 307], the negative-log EC50 (pEC50) is < 6.00.

As to `O=C1N[C@@H](c2cccc(C#Cc3ccccc3)n2)[C@H](c2ccccc2F)O1` (single isomer, unassigned) [Example 308], the pEC50 is < 6.00.

For the molecule `O=C1N[C@H](c2cccc(C#Cc3ccccc3)n2)[C@@H](c2ccc(F)cc2F)O1` (single isomer, unassigned) [Example 309], the pEC50 is > 7.00.

As to `O=C1N[C@@H](c2cccc(C#Cc3ccccc3)n2)[C@H](c2ccc(F)cc2F)O1` (single isomer, unassigned) [Example 310], the pEC50 is < 6.00.

In the case of `O=C1N[C@H](c2cccc(C#Cc3cccc(F)c3)n2)[C@@H](c2ccc(F)cc2F)O1` (single isomer, unassigned) [Example 311], the pEC50 was > 7.00.

Take `O=C1N[C@@H](c2cccc(C#Cc3cccc(F)c3)n2)[C@H](c2ccc(F)cc2F)O1` (single isomer, unassigned) [Example 312]: the pEC50 was < 5.52.

For `O=C1N[C@H](c2cccc(C#Cc3ccccc3)n2)[C@@H](c2c(F)cc(F)cc2F)O1` (single isomer, unassigned) [Example 313], the negative-log EC50 (pEC50) is 6.00 to 7.00.

For `O=C1N[C@@H](c2cccc(C#Cc3ccccc3)n2)[C@H](c2c(F)cc(F)cc2F)O1` (single isomer, unassigned) [Example 314], the negative logarithm of the EC50 (pEC50) is < 6.00.

As for `O=C1N[C@H](c2cccc(C#Cc3ccccc3)n2)[C@@H](c2cc(F)cc(F)c2)O1` (single isomer, unassigned) [Example 315], the pEC50 is < 6.00.

As to `O=C1N[C@@H](c2cccc(C#Cc3ccccc3)n2)[C@H](c2cc(F)cc(F)c2)O1` (single isomer, unassigned) [Example 316], the pEC50 is < 6.00.

As for `O=C1N[C@@H](c2cncc(C#Cc3ccccc3)c2)[C@H](c2ccncn2)O1` (single isomer, unassigned) [Example 317], the pEC50 was < 6.00.

For `O=C1N[C@H](c2cncc(C#Cc3ccccc3)c2)[C@@H](c2ccncn2)O1` (single isomer, unassigned) [Example 318], the pEC50 was > 7.00.

Regarding `O=C1N[C@@H](c2cncc(C#Cc3ccccc3)c2)[C@@H](c2ccncn2)O1` (single isomer, unassigned) [Example 319], the pEC50 is < 6.00.

Regarding `O=C1N[C@H](c2cncc(C#Cc3ccccc3)c2)[C@H](c2ccncn2)O1` (single isomer, unassigned) [Example 320], the pEC50 was > 7.00.

As for `O=C1N[C@@H](c2cncc(C#Cc3ccccc3)c2)[C@H](c2ccnnc2)O1` (single isomer, unassigned) [Example 321], the pEC50 is < 6.00.

Regarding `O=C1N[C@H](c2cncc(C#Cc3ccccc3)c2)[C@@H](c2ccnnc2)O1` (single isomer, unassigned) [Example 322], the pEC50 is > 7.00.

Consider `O=C1N[C@@H](c2cncc(C#Cc3ccccc3)c2)[C@@H](c2ccnnc2)O1` (single isomer, unassigned) [Example 323], for which the pEC50 is < 6.00.

With `O=C1N[C@H](c2cncc(C#Cc3ccccc3)c2)[C@H](c2ccnnc2)O1` (single isomer, unassigned) [Example 324], the pEC50 was > 7.00.

`O=C1N[C@@H](c2cncc(C#Cc3ccccc3)c2)[C@H](c2cc(Cl)ccc2Cl)O1` (single isomer, unassigned) [Example 325]: the pEC50 was < 5.82.

With `O=C1N[C@H](c2cncc(C#Cc3ccccc3)c2)[C@@H](c2cc(Cl)ccc2Cl)O1` (single isomer, unassigned) [Example 326], the pEC50 was < 5.52.
